{"source": "patent US20230104487A1", "about": "“11-(4-CHLOROPHENYL)-4-(2,3-DIHYDRO-1H-INDOLE-1-CARBONYL)-3,11-DIMETHYL-5,10,DIOXATRICYCLO[7.4.0.0,2,6,]TRIDECA-1,3,6,8-TETRAEN-13-ONE AND DERIVATIVES AS DESTABILIZER OF CRY1 FOR THE TREATMENT OF CIRCADIAN RHYTHM ASSOCIATED DISEASES AND DISORDERS” (KOC UNIVERSITESI, priority 2019, published 2023)", "test": "Plasma pharmacokinetics in mice", "type": "in vivo, mouse", "method": "C57BL/6J female mice (n=4 per each time point) were treated with 100 mg/kg single dose of FORMULA I intraperitoneally. Blood samples were collected 0, 0.5, 1, 2, 4, 8, 12 and 24 h after administration of FORMULA I by cardiac puncture under isoflurane anesthesia. Plasma was obtained by centrifugation from heparinized tubes and stored at −80° C. until analysis. Brain tissues were quickly removed and stored at −80° C. for further processing. For assessment of the brain exposure of FORMULA I, levels in this tissue were only determined at 2nd (n=2) and 4th (n=2) hours according to maximum concentrations of the molecule in plasma.\nLiquid chromatography coupled to tandem mass spectrometry (LC-MS/MS) was used to obtain high mass accuracy data of the analytes in plasma samples for the determination of FORMULA I and Internal standard (IS) Loratadine. The instrument was operated in full scan mode and ion source parameters were optimised for the analytes. The optimized conditions of the electrospray ionization (ESI) source were as follows: gas temperature, 300° C.; gas flow, 10 L/min; nebulizer pressure, 25 psi; capillary voltage, 5500 V. ESI in the positive ion mode provides the best results for FORMULA I. For MS-MS detection, the protonated molecules were selected as precursor ions and the most abundant fragment ions obtained at collision energy of 22-20 eV were monitored as the product ions for FORMULA I and IS. MS-MS analysis was performed in the selected reaction monitoring (SRM) positive ionization mode, using mass transitions for FORMULA I m/z 472.1→353.4 [collision energy (CE)=22 eV] and Fragmentor 234 V, for IS; m/z 383.2→337.2 (CE=20 eV) and fragmentor 140 V. For the separation of the analytes, a conventional reversed-phase LC separation on C18-bonded silica was used, with Methanol: % 0.1 Formic acid (90:10, v/v) mobile phase. FORMULA I was extracted from plasma samples by using liquid-liquid extraction with Methanol. 10 μL of sample was injected into the LC-MS/MS system.\nPeak plasma concentration (Cmax) and time to reach peak plasma concentration (tmax) values were directly obtained from the FORMULA I plasma concentration-time curve. The area under the plasma concentration-time curve from […] was calculated by the trapezoidal method. AUC0-∞ was obtained by addition of the extrapolated part after the last sampling time using standard techniques. Other pharmacokinetic parameters of FORMULA I were calculated by the non-compartmental method. Elimination rate constant (kel) was calculated from the terminal points of FORMULA I plasma concentration-time plot and the slope of this line was equal to kel. Terminal elimination half-life (t½) was calculated by ln-linear approximation of terminal points of the data. t½ and kel were interconverted with the following formula: t1/2=ln 2/kel", "key": {"[1]": {"details": "female, C57BL/6J, mouse, ip, 100 mg/kg, single dose, plasma"}}, "note": "Like-named read-outs stand apart in the source and are kept apart here.", "data": [{"smiles": "Cc1c(C(=O)N2CCc3ccccc32)oc2ccc3c(c12)C(=O)CC(C)(c1ccc(Cl)cc1)O3", "note": "(stereo not drawn) [FORMULA I, 11-(4-chlorophenyl)-4-(2,3-dihydro-1H-indole-1-carbonyl)-3,11-dimethyl-5,10,dioxatricyclo[7.4.0.0,2,6,]trideca-1,3,6,8-tetraen-13-one]", "values": [{"measurement": "time plasma level first detected", "setting": "100 mg/kg, single dose, i.p.", "result": 0.5, "unit": "h"}, {"measurement": "time plasma level still quantifiable", "setting": "100 mg/kg, single dose, i.p.", "result": 24, "unit": "h"}, {"measurement": "kel", "setting": "100 mg/kg, single dose, i.p., plasma", "result": "0.127 ± 0.01", "unit": "h⁻¹"}, {"measurement": "AUC(0-inf)", "setting": "[1]", "result": "5190 ± 3130", "unit": "ng·h/mL"}, {"measurement": "Cmax", "setting": "[1]", "result": "1150 ± 506", "unit": "ng/mL"}, {"measurement": "Tmax", "setting": "[1]", "result": "2 to 4", "unit": "h"}, {"measurement": "half-life", "setting": "female, C57BL/6J, mouse, plasma, intraperitoneal, 100 mg/kg, in vivo, mice, read-out: half-life in blood (converted)", "result": 6, "unit": "h"}, {"measurement": "half-life", "setting": "female, C57BL/6J, mouse, plasma, ip, 100 mg/kg, single dose, i.p., plasma, read-out: t1/2 (converted)", "result": "5.5 ± 0.33", "unit": "h"}, {"measurement": "half-life in blood", "setting": "in vivo, mice", "result": "~6", "unit": "h"}]}]}
